These are literature values, as cited in US8496960B2 (Purdue Pharma L.P., priority 2001, dated 2013).

For series [1] the following is noted: following oral administration.

Turning to `COc1cc2nc(N3CCN(C(=O)C4CCCO4)CC3)nc(N)c2cc1OC` (stereo not drawn) [terazosin], the “time to antihypertensive effects” value in series [1] was not above 15 min. Moreover, where the note is “following oral administration”, the first-pass effect entry is recorded as “minimal”. Moreover, the “effect of food on bioavailability” value (oral, with food) was “no significant effect”.
